Assay results reported in publication PMC10447463, “Data-mining unveils structure–property–activity correlation of viral infectivity enhancing self-assembling peptides” (Nature Communications, 2023).

How the values were obtained:
[1] = system: HIV-1 infection of TZM-bl cells; test: HIV-1 infectivity enhancement assay, β-galactosidase luminescence; type: cell-based
[2] = type: physicochemical; design: key to Fibril / Fibril Formation / TEM 2cat / Fibril: 1 = fibrils present; 0 non-fibrillar structures; settings: for Fibril / Fibril Formation: TEM, 1 mg/mL, uranyl acetate stain, qualitative
[3] = Turbidity, derived count rate of scattered light; type: physicochemical; settings: for Log Count Rate: log of derived count rate; for Count Rate: turbidity; for Count Rate / kcps: derived count rate of scattered light at 633 nm, 173°, from zeta-potential measurement, 0.1 mg/mL in 1 mM KCl after 1 d at 1 mg/mL in PBS, turbidity / microscopic aggregation, mean of triplicate
Method in brief: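 One-day room-temperature aggregation at 1 mg/mL in PBS (pH 7.4) preceded measurement; samples then went into 1 mM KCl. Triplicates per sample, two independent experiments averaged.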

[4] = Feb2021 run; infectivity n-fold relative to virus alone
[5] = Feb2021 run; log10 of infectivity relative to EF-C
[6] = Feb2021 run; n-fold infectivity relative to EF-C
[7] = infectivity class (low / medium / high) of the peptide in the sequence-pattern analysis, Fig. S22-A4; class limits not given
[8] = log10 of HIV-1 infection of TZM-bl cells relative to EF-C; Fig S15 source data; asymmetric std dev errors
[9] = derived count rate of scattered light, mean, std deviation in separate column
[10] = infectivity class (low / medium / high) of each library peptide; main list in c1-c6, same classes repeated in sub-lists of sequences containing the hydrophobicity/charge patterns P+,H0,P+,H0,P0,H0,P0; P+,H0,P0,H0,P0,H0,P0; P+,H0,P0,H0
[11] = Feb2021; figures match the 1.3 µM column
[12] = Feb2021; infectivity relative to virus only
[13] = Feb2021; log10 of infectivity relative to EF-C
[14] = Feb2021; n-fold infectivity relative to EF-C
[15] = infectivity enhancement relative to EF-C (=1); Feb2021 run
[16] = infectivity n-fold relative to virus only; Feb2021 run
[17] = log10 of infectivity relative to EF-C; Feb2021 run
[18] = derived count rate from zeta measurement, mean
[19] = derived count rate of scattered light
[20] = Fig S8 panels B, D; infectivity enhancement relative to EF-C
[21] = Fig S8 panels B, D; infectivity n-fold relative to virus alone
[22] = Fig S8 panels A, C, asymmetric log errors
[23] = Fig S8 panels B, D, derived count rate of scattered light
[24] = log10 of infection relative to EF-C, Figure 6C
[25] = n-fold infection vs virus only, relative to that of EF-C, 1.3 µM peptide
[26] = log10 of derived count rate of scattered light, Figure 6C
[27] = logarithm of count rate in kcps

Substance | n-fold to virus (Feb2021) [1, 4] | Log10 of Rel to EFC (Feb2021) [1, 5] | Rel-to EFC (Feb-2021) [1, 6] | infectivity [1, 7] | Log10 Inf. rel. to EF-C [1, 8] | TEM: 1= fibrils, 0= aggregates (micelle), 0.5 = aggregates and fibrils, -1 = nothing obersved, STD prep [2] | Zeta Count Rate / kcps [3, 9] | infectivity [1, 10] | further results
KIKIKIKI [TM13] | 1.369 | -1.487 | 0.03258 | low | -1.487 | 0 | 155.1 kcps | – | –
KIKIKIKIWW [TM21] | 15.73 | -0.4266 | 0.3744 | – | -0.4266 | 0 | 9436 kcps | medium | –
KIKIKIKIWWWW [TM12] | 24.74 | -0.2301 | 0.5888 | – | -0.2301 | 0 | 12420.6 kcps | medium | –
KIKIQII [TG1 / (KM4)] | 0.7843 | -1.729 | 0.01867 | low | -1.729 | 1 | 1039 kcps | low | Absolute Infectivity / RLU /s (Feb2021) [1, 11]: 400 RLU /s; n-fold to virus (Feb2021) [1, 12]: 0.7843; Log10 of Rel to EFC (Feb2021) [1, 13]: -1.729; Rel-to EFC (Feb-2021) [1, 14]: 0.01867; Rel-to EFC (Feb-2021) [1, 15]: 0.01867; n-fold to virus (Feb2021) [1, 16]: 0.7843; Log10 of Rel to EFC (Feb2021) [1, 17]: -1.729; Zeta Count Rate Category ([3]; category 1 / 0, no key given): 1; Zeta Count Rate / kcps [3, 18]: 1039 kcps; Zeta Count Rate / kcps [3, 19]: 1039 kcps; Zeta Count Rate Category ([3]; key not given): 1
KIKIQIII [TG7] | 14.84 | -0.452 | 0.3531 | – | -0.4521 | 1 | 94.97 kcps | medium | Absolute Infectivity / RLU /s (Feb2021) [1, 11]: 8260 RLU /s; n-fold to virus (Feb2021) [1, 12]: 14.84; Log10 of Rel to EFC (Feb2021) [1, 13]: -0.452; Rel-to EFC (Feb-2021) [1, 14]: 0.3531; Rel-to EFC (Feb-2021) [1, 15]: 0.3531; n-fold to virus (Feb2021) [1, 16]: 14.84; Log10 of Rel to EFC (Feb2021) [1, 17]: -0.452; Zeta Count Rate Category ([3]; category 1 / 0, no key given): 0; Zeta Count Rate / kcps [3, 18]: 94.97 kcps; Zeta Count Rate / kcps [3, 19]: 94.97 kcps; Zeta Count Rate Category ([3]; key not given): 0
KIKIQIN [JGB3] | 11.14 | -0.5766 | 0.2651 | – | -0.5766 | 1 | 43.43 kcps | medium | Rel-to EFC [1, 20]: 0.2651; n-fold to virus [1, 21]: 11.14; Log Count Rate [3, 22]: 1.638; Log Count Rate ([3]; Fig S8 panels B, D): 1.638; Count Rate [3, 23]: 43.43
KIKIQINMWQRGD [VH17-II] | 0.5086 | -1.917 | 0.0121 | low | -1.917 | 0 | 2783 kcps | low | –
KIKIQINMWWQ [VH11] | 134.825 | 0.5063 | 3.209 | high | 0.5063 | 0.5 | 3893 kcps | high | –
KIKIQINMWWWQ [VH12] | 115.5 | 0.4391 | 2.749 | high | 0.4391 | 0.5 | 7596.3 kcps | high | –
KIKIQIW [TM69] | 5.89 | -0.8533 | 0.1402 | – | -0.8533 | 1 | 144.9 kcps | medium | Absolute Infectivity / RLU /s (Feb2021) [1, 11]: 4280 RLU /s; n-fold to virus (Feb2021) [1, 12]: 5.89; Log10 of Rel to EFC (Feb2021) [1, 13]: -0.8533; Rel-to EFC (Feb-2021) [1, 14]: 0.1402; Zeta Count Rate Category ([3]; category 1 / 0, no key given): 1; Zeta Count Rate / kcps [3, 19]: 144.9 kcps
KIKIWIW | – | – | – | – | – | – | – | – | Log10 Infection Rel EF-C [1, 24]: -0.4875; Inf. rel. EF-C [1, 25]: 0.33; Fibril / Fibril Formation [2]: 1; Count Rate / kcps [3]: 607.7 kcps; Log10 Count Rate [3, 26]: 2.784; Log10 Count Rate [3, 27]: 2.784
KIKQIIN [JGA3] | – | – | – | – | -1.4 | 0.5 | – | low | Rel-to EFC [1, 20]: 0.0398; n-fold to virus [1, 21]: 1.672; Rel-to EFC (Feb-2021) [1, 15]: 0.0398; n-fold to virus (Feb2021) [1, 16]: 1.672; Log10 of Rel to EFC (Feb2021) [1, 17]: -1.4; Log Count Rate [3, 22]: 1.806; Log Count Rate ([3]; Fig S8 panels B, D): 1.806; Count Rate [3, 23]: 64.03; Zeta Count Rate / kcps [3, 18]: 64.03 kcps; Zeta Count Rate Category ([3]; key not given): 0
KIWIWIW | – | – | – | – | – | – | – | – | Log10 Infection Rel EF-C [1, 24]: -0.2793; Inf. rel. EF-C [1, 25]: 0.53; Fibril / Fibril Formation [2]: 1; Count Rate / kcps [3]: 6186.6 kcps; Log10 Count Rate [3, 26]: 3.791; Log10 Count Rate [3, 27]: 3.791
KLKLKLQL [TG16] | – | – | – | low | -1.009 | 1 | – | low | Absolute Infectivity / RLU /s (Feb2021) [1, 11]: 2097 RLU /s; n-fold to virus (Feb2021) [1, 12]: 4.111; Log10 of Rel to EFC (Feb2021) [1, 13]: -1.009; Rel-to EFC (Feb-2021) [1, 14]: 0.09784; Zeta Count Rate Category ([3]; category 1 / 0, no key given): 0; Zeta Count Rate / kcps [3, 19]: 42.87 kcps
KLKLTLT | – | – | – | – | – | – | – | – | Inf. rel. EF-C ([1]; HIV-1 infection relative to EF-C; Fig 23 plot, panels A and B; mean of 3 values): 0.03847; Inf. rel. EF-C ([1]; HIV-1 infection relative to EF-C; Fig 23 plot, single data point, replicate 1): 0.0783; Inf. rel. EF-C ([1]; HIV-1 infection relative to EF-C; Fig 23 plot, single data point, replicate 2): 0.01816; Inf. rel. EF-C ([1]; HIV-1 infection relative to EF-C; Fig 23 plot, single data point, replicate 3): 0.01895; Log10 Infection Rel EF-C [1, 24]: -1.415; Inf. rel. EF-C [1, 25]: 0.04; Fibril / Fibril Formation [2]: 1; Count Rate / kcps [3]: 198.5 kcps; Log10 Count Rate [3, 26]: 2.298; Log10 Count Rate [3, 27]: 2.298
